Assay results reported in US6291683A, “N-arloxyethyl-alkylamines for the treatment of depression” (American Home Products Corp, priority 2000, dated 2001).
Read-outs that look alike come from different tables or passages of the source.

How the values were obtained:
serotonin transporter = target: T1, serotonin transporter (Rattus norvegicus, UniProt P31652); assay: affinity for the serotonin transporter ([3H]-paroxetine binding, rat frontal cortical membranes); parameters: species or system rat (male Sprague-Dawley); conditions: for inhibition at 0.1 µM: @ .1 μM, read-out: ST (% Inhib. @ .1 μM)
T1 construct: frontal cortical membranes prepared from male Sprague-Dawley rats; from tissue; host or cells: frontal cortex membranes, male Sprague-Dawley rats
Description: Briefly, frontal cortical membranes prepared from male Sprague-Dawley rats were incubated with ^3 H-paroxetine (0.1 nM) for 60 min at 25° C. […] All reactions are terminated by the addition of ice cold Tris buffer followed by rapid filtration using a Tom Tech filtration device to separate bound from free ^3 H-paroxetine.

5-HT1A cloned receptor = target: T2, 5-HT1A cloned receptor (Homo sapiens, UniProt P08908); assay: [35S]-GTPγS binding assay, 5-HT1A cloned receptor membrane fragments; type: biochemical; conditions: maximum agonist response defined by excess 8-OH-DPAT
T2 construct: expressed in transfected cells
T2 sequence (P08908 1-422): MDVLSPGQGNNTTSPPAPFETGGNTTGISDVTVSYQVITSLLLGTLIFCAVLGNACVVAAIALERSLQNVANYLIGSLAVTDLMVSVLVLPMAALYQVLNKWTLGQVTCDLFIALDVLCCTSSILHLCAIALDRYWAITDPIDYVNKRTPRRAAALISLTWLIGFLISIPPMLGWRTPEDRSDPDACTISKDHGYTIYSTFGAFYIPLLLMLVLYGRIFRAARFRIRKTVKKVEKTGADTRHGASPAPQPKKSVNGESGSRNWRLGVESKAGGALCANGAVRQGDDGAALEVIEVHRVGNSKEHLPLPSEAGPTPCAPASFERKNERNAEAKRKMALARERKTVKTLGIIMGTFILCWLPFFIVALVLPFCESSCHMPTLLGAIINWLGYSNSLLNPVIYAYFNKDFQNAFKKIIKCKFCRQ

human 5-HT1A receptor = target: T3, human 5-HT1A receptor (Homo sapiens, UniProt P08908); assay: 5-HT1A receptor binding ([3H]8-OH-DPAT displacement, membranes of 5-HT1A.CHO cells)
T3 sequence (P08908 1-422): T2 sequence (P08908 1-422)
Description: Cells were maintained in DMEN supplemented with 10% fetal calf serum, non-essential amino acids and penicillin/ streptomycin.
Cells were grown to 95-100% confluency as a monolayer before membranes were harvested for binding studies. Cells were gently scraped from the culture plates, transferred to centrifuge tubes, and washed twice by centrifugation (2000 rpm for 10 min., 4° C.) in buffer (50 mM Tris; pH 7.5). The resulting pellets were aliquoted and placed at -80° C. On the day of assay, the cells were thawed on ice, and resuspended in buffer. Studies were conducted using [^3 H]8-OH-DPAT as the radioligand. The binding assay was performed in 96 well microtiter plates in a final total volume of 250 μL of buffer.

[1] = [3H]-paroxetine 0.1 nM, 60 min, 25° C
[2] = read-out: 5-HT1A (Ki), [3H]8-OH-DPAT 1.5 nM, 30 min, room temperature, CHO cell membranes

T1 sequence (P31652 whole entry): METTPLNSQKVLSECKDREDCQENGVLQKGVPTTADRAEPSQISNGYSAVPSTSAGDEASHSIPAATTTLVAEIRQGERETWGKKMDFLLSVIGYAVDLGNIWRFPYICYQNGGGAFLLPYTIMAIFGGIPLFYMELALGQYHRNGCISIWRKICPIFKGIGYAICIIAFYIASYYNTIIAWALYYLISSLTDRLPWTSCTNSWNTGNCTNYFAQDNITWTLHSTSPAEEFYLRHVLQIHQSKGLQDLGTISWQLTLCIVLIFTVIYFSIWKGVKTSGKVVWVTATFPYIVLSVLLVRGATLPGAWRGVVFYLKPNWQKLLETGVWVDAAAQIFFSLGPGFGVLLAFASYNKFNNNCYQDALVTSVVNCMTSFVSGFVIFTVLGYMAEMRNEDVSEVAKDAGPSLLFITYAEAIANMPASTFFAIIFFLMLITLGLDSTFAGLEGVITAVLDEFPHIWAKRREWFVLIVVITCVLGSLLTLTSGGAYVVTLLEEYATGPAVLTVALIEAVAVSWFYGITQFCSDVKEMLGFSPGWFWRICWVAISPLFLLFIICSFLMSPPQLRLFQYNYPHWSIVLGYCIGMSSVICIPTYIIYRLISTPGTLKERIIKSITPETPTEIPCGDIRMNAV

| Compound | Ki (serotonin transporter) | Emax (5-HT1A cloned receptor) | inhibition at 0.1 µM (serotonin transporter; [1]) | Ki (human 5-HT1A receptor) | Ki (human 5-HT1A receptor; [2]) | also measured |
| --- | --- | --- | --- | --- | --- | --- |
| c1cc(OCCNCCc2c[nH]c3ccccc23)c2c(c1)OCCO2 [Example 6, [2-(2,3-Dihydrobenzo[1,4]dioxin-5-yloxy)-ethyl]-[2-(1H-indol-3-yl)-ethyl]-amine] | 12 nM | 100% |  |  |  |  |
| Fc1ccc2[nH]cc(CCCNCCOc3cccc4c3CCC4)c2c1 [Example 13a, [3-(5-Fluoro-1H-indol-3-yl)-propyl]-[2-(indan-4-yloxy)-ethyl]-amine] |  |  | 71% | 76.9 nM |  |  |
| c1ccc(OCCNCCCc2c[nH]c3ccccc23)cc1 [Example 13d, [3-(1H-indol-3-yl)-propyl]-[2-phenoxy-ethyl]-amine] |  |  | 26% |  |  |  |
| Fc1ccc2[nH]cc(CCCNCCOc3ccc4c(c3)CCC4)c2c1 [Example 14] | 56 nM |  |  | 158 nM |  |  |
| COc1ccccc1OC(C)CNCCCc1c[nH]c2ccc(F)cc12 (stereo not drawn) [Example 17, [3-(5-Fluoro-1H-indol-3-yl)-propyl]-[2-(2-methoxy-phenoxy)propyl]amine] |  | 97.5% |  |  | 14.5 nM | Ki (serotonin transporter; read-out: ST (Ki), [3H]-paroxetine 0.1 nM, 60 min, 25° C, Ki converted from IC50 (Cheng and Prusoff)): 16 nM |
| [3-(5-Fluoro-1H-indol-3-yl)-propyl]-[2-(2-methoxy-phenoxy)-2-phenyl-ethyl]- amine [Example 16] |  |  |  |  | 43.9 nM | Ki (serotonin transporter; [3H]-paroxetine 0.1 nM, 60 min, 25° C, Ki converted from IC50 (Cheng and Prusoff), read-out: ST (Ki)): 21 nM |
